Reference: paper PMC9861858, “Stereoselective Synthesis and Antiproliferative Activities of Tetrafunctional Diterpene Steviol Derivatives” (International Journal of Molecular Sciences, 2023)
≈ marks a conversion by molar mass, not a printed value. Entries after “also recorded” stand apart in the source; their conditions may differ.

Key:
[1] = system: human cancer cell lines (HeLa, SiHa, A2780, MCF-7 and MDA-MB-231); experiment: MTT antiproliferative assay, whole cancer cell panel; type: cell-based; details: 10 and 30 μM
Method: (§1) The in vitro antiproliferative activities of the synthesised aminotriols 5–18 against a panel of different human cancer cell lines of gynecological origin, including cervical (SiHA and HeLa), breast (MCF7 and MDA-MB-231), ovary (A2780) cancers and NIH/3T3 healthy fibroblasts, were assayed by the MTT method. Cisplatin, a clinically applied anticancer agent was used as a reference compound, and the results are summarised in Figure 3 and Table S1 in the Supplementary Materials.
(§2) The growth-inhibitory effects of the presented terpenes were determined by a standard MTT [3-(4,5-dimethylthiazol2-yl)-2,5-diphenyltetrazolium bromide] assay against […] human cancer cell lines (cervical cancer HeLa and SiHa cell lines, breast cancer MCF-7 and MDA-MB-231 and ovarian cancer A2780). Murine embryonal fibroblast cells (NIH/3T3) were used to determine selectivity. All cell lines were purchased from the European Collection of Cell Cultures (Salisbury, UK). The cells were cultivated in Eagle’s minimal essential medium supplemented with 10% fetal bovine serum, 1% non-essential amino acids, and 1% Antibiotic-Antimycotic complex (penicillin, streptomycin, amphotericin B) at 37 °C in a humidified atmosphere containing 5% CO2. All media and supplements were purchased from Lonza Group Ltd. (Basel, Switzerland). Cancer cells were seeded into 96-well plates (5000 cells/well) after an overnight incubation, and the test compounds were added at two different concentrations (10 μM and 30 μM) and incubated for another 72 h under cell-culturing conditions. Finally, 20 μL of a 5 mg/mL MTT solution was added to each well, and the contents were incubated for a further 4 h. The medium was removed, and the precipitated formazan crystals were dissolved in DMSO by shaking at 37 °C for 60 min. The absorbance was measured at 545 nm by using a microplate reader (SPECTROStar Nano, BMG Labtech, Offenburg, Germany). Clinically utilised anticancer agent cisplatin (Ebewe GmbH, Unterach, Austria) was included as a reference molecule. Calculations were performed using the GraphPad Prism 9 software (GraphPad Software Inc., San Diego, CA, USA).

[2] = Kinetic aqueous solubility; type: physicochemical; details: phosphate buffered saline with 5% DMSO, aqueous with cosolvent or surfactant or cyclodextrin, kinetic from dmso stock; after 2 h, at 37 °C in PBS, pH 7.4, 5% DMSO; target concentration 500 μM; mean ± S.E.M, n = 3
Method: (§3) Filtrates and calibration solutions (5–500 μ M) of the kinetic solubility study and starting donor and acceptor solutions of the PAMPA-GI study were investigated by HPLC-DAD-MS. LC-MS analysis was performed using a Waters 2795 HPLC with a Waters 2487 DAD detector coupled with a Micromass Quattro Ultima TMPt quadrupol mass spectrometer equipped with an ESI source. Measurements were performed on a Waters XSelect C18 (150 × 4.6 mm; 3.5 μm) column with a […] eluent flow rate and the temperature set at 40 °C. The composition of eluent A was MilliQ water with 0.1% formic acid, and that of eluent B was an acetonitrile and MilliQ water mixture (95:5, v/v), also with 0.1% formic acid. The following linear gradient program was used: 0–6 min, 10–100% B; this was held for 3 min, then from 9.01 min on, back to the starting composition of 10% B–90% A. The injection volume was 10 μL for each sample. Chromatographic profiles were registered at dual wavelength, 220 and 240 nm. The mass spectrometer was used in negative ion mode for samples 2, 3 and 4b, and in positive ion mode for other samples. The operating parameters of the MS were: Mass range of m/z 150–700. Nitrogen gas flow rate was 350 L/h, temperature of 350 °C and pressure of 6 bar. The quadrupol temperature was 120 °C, and the capillary voltage was 2.5 kV. Fragmentor’s voltage of 60 V.
(§4) Intestinal (GI) permeability was determined by using an intestinal-specific parallel artificial membrane permeability assay (PAMPA-GI [36]]). […] All solutions were filtered by MultiScreen HTS Vacuum Manifold (Merck Ltd., Budapest, Hungary) after the incubation period. The target concentration was 500 μM for every sample investigated. The intestinal-specific effective permeability of the samples was determined by PAMPA-GI. To prepare starting solutions for a 96-well donor plate, 15 μLs of the 10 mM DMSO stock solution of investigation compounds and 285 μL pH 6.5 phosphate buffer solution were mixed. These solutions were left in a shaking incubator (300 rpm) at 25 °C for 1 h. Meanwhile, a 96-well acceptor plate was filled with 300 μL of pH 7.4 PBS buffer solution containing 5% DMSO. The intestinal-specific artificial membrane was prepared the following way: the hydrophobic filter material of the donor plate was coated with a mixture of phosphatidylcholine/cholesterol = 2:1 (5 μL, 4 % (w/v) in dodecane). After that, all donor wells were filled with 150 μL of the starting donor solutions, and they were carefully placed on the acceptor plate and incubated at 37 °C for 4 h. After the end of the incubation period the donor and acceptor plates were separated carefully. A total of 150 μL of the donor, acceptor and the starting donor solutions were sampled and analysed with HPLC-DAD-MS. The effective permeability and membrane retention of drugs were calculated using the following equations: Pe=−2.303/A·(t−τss)·1/1+rv·lg[−rv+(1+rv/1−MR)·]CD(t)/CD(0) MR=1−CD(t)/CD(0)−VA·CA(t)/VD·CD(0) where Pe is the effective permeability coefficient (cm/s), A is the filter area (0.3 cm^2), VD and VA are the volumes in the donor (0.15 cm^3) and acceptor phase (0.3 cm^3), t is the incubation time (s), τSS is the time to reach steady-state (s), CD(t) is the concentration of the compound in the donor phase at time point t (mol/cm^3), CD(0) is the concentration of the compound in the donor phase at time point zero (mol/cm^3), rv is the aqueous compartment volume ratio (VD/VA), MR is the membrane retention factor.

[3] = Intestinal-specific parallel artificial membrane permeability assay (PAMPA-GI); type: in vitro ADME; details: gradient pH system (pH donor 6.5 → pH acceptor 7.4) after 4 h, at 37 °C, mean ± S.E.M, n = 3; for Papp at 4 h, 500 µM: PAMPA, read-out: PAMPA-GI Pe
Method: as §3, §4

HeLa cells = experiment: MTT antiproliferative assay, HeLa; type: cell-based, human; details: Homo sapiens, HeLa, 72 h, values <20% considered negligible, read-out: Growth inhibition (%) ± SEM, HeLa
Method: as §1, §2

SiHa cells = experiment: MTT antiproliferative assay, SiHa; type: cell-based, human; details: Homo sapiens, SiHa, 72 h, values <20% considered negligible, read-out: Growth inhibition (%) ± SEM, SiHa
Method: as §1, §2

MCF-7 cells = experiment: MTT antiproliferative assay, MCF-7; type: cell-based, human; details: for inhibition at 10 µM / inhibition at 30 µM: Homo sapiens, 72 h, values <20% considered negligible, read-out: Growth inhibition (%) ± SEM, MCF-7; for inhibition at 10 µM: MCF7, 10 μM; for inhibition at 30 µM: MCF7, 30 μM; for Antiproliferative effect / selectivity on MCF-7, in words: 10 and 30 μM
Method: as §1, §2

MDA-MB-231 cells = experiment: MTT antiproliferative assay, MDA-MB-231; type: cell-based, human; details: for inhibition at 10 µM / inhibition at 30 µM: Homo sapiens, 72 h, values <20% considered negligible, read-out: Growth inhibition (%) ± SEM, MDA-MB-231; for inhibition at 10 µM: MDA-MB-231, 10 μM; for inhibition at 30 µM: MDA-MB-231, 30 μM
Method: as §1, §2

A2780 cells = experiment: MTT antiproliferative assay, A2780; type: cell-based, human; details: for inhibition at 10 µM / inhibition at 30 µM: Homo sapiens, 72 h, values <20% considered negligible, read-out: Growth inhibition (%) ± SEM, A2780; for inhibition at 10 µM: A2780, 10 μM; for inhibition at 30 µM: A2780, 30 μM
Method: as §1, §2

NIH/3T3 fibroblasts = experiment: MTT assay on fibroblasts (selectivity); type: cell-based, murine; details: Mus musculus, 72 h, values <20% considered negligible, read-out: Growth inhibition (%) ± SEM, NIH/3T3; for inhibition at 10 µM: NIH3T3, 10 μM; for inhibition at 30 µM: NIH3T3, 30 μM
Method: as §1, §2

SMILES	Antiproliferative activity on the cancer cell panel, in words [1]	solubility kinetic at 2 h [2]	Papp at 4 h, 500 µM [3]	PAMPA-GI MR (membrane retention) [3]	inhibition at 10 µM (HeLa cells)	inhibition at 30 µM (HeLa cells)	inhibition at 10 µM (SiHa cells)	inhibition at 30 µM (SiHa cells)	inhibition at 10 µM (MCF-7 cells)	inhibition at 30 µM (MCF-7 cells)	inhibition at 10 µM (MDA-MB-231 cells)	inhibition at 30 µM (MDA-MB-231 cells)	inhibition at 10 µM (A2780 cells)	inhibition at 30 µM (A2780 cells)	inhibition at 10 µM (NIH/3T3 fibroblasts)	inhibition at 30 µM (NIH/3T3 fibroblasts)	melting point	Antiproliferative effect / selectivity on MCF-7, in words (MCF-7 cells)	Antiproliferative effect / selectivity on MDA-MB-231, in words (MDA-MB-231 cells; 10 and 30 μM)	Antiproliferative effect on A2780, in words (A2780 cells; 10 and 30 μM)
C=C1[C@H](O)[C@@]23CC[C@H]4[C@@](C)(CCC[C@@]4(C)C(=O)O)[C@@H]2CC[C@]1(O)C3 [Compound 2]	any notable effect was not detectable	443 ± 35.7 µM (≈ 148 µg/mL)	0.52 ± 0.02 ×10⁻⁶ cm/s	6.5 ± 0.7%																
COC(=O)[C@]1(C)CCC[C@@]2(C)C3CC[C@]4(O)C[C@@]3(CCC21)[C@@H](O)[C@]4(O)CN[C@H](C)c1ccc2ccccc2c1 (stereo partly drawn) [Compound 12, (4R,6aR,7R,8R,9S,11bS)-Methyl 7,8,9-Trihydroxy-4,11b-dimethyl-8-((((R)-1-(naphthalen-2-yl)ethyl)amino)methyl)tetradecahydro-6a,9-methanocyclohepta[a]naphthalene-4-carboxylate]		13.3 ± 0.9 µM (≈ 7.13 µg/mL)		92.6 ± 2.1%	96.82 ± 0.56%	96.94 ± 0.49%	96.08 ± 0.6%	95.49 ± 0.86%	96.35 ± 0.36%	95.87 ± 0.38%	95.84 ± 0.29%	95.62 ± 0.34%	96.68 ± 0.36%	96.38 ± 0.3%	90.07 ± 0.51%	94.67 ± 0.24%	93 to 95 °C			
COC(=O)[C@]1(C)CCC[C@@]2(C)C3CC[C@]4(O)C[C@@]3(CCC21)[C@@H](O)[C@]4(O)CNCc1ccc(OC)cc1 (stereo partly drawn) [Compound 10, (4R,6aR,7R,8R,9S,11bS)-Methyl 7,8,9-Trihydroxy-8-(((4-methoxybenzyl)amino)methyl)-4,11b-dimethyltetradecahydro-6a,9-methanocyclohepta[a]naphthalene-4-carboxylate]		143 ± 26.8 µM (≈ 71.7 µg/mL)	0.37 ± 0.11 ×10⁻⁶ cm/s	6.1 ± 1.1%	27.8 ± 1.05%	96.06 ± 0.93%	24.1 ± 1.39%	94.64 ± 0.5%	74.3 ± 2.62%	95.66 ± 0.76%	37.8 ± 2.27%	93.42 ± 0.56%	< 20%	96.79 ± 0.25%	< 20%	90.9 ± 1.17%	161 to 163 °C	higher selectivity; also recorded: performed best		
COC(=O)[C@]1(C)CCC[C@@]2(C)[C@@H]3CCC4(O)C[C@@]3(CC[C@@H]21)[C@@H](O)[C@]4(O)CN[C@H](C)c1ccc(F)cc1 [Compound 11, (4R,4aS,6aR,7R,8R,11aS,11bS)-Methyl 8-((((R)-1-(4-Fluorophenyl)ethyl)amino)methyl)-7,8,9-trihydroxy-4,11b-dimethyltetradecahydro-6a,9-methanocyclohepta[a]naphthalene-4-carboxylate]		145 ± 14.1 µM (≈ 73.2 µg/mL)	0.48 ± 0.05 ×10⁻⁶ cm/s	22.4 ± 2.0%	95.4 ± 1.08%	95.8 ± 1.11%	93.66 ± 0.85%	94.59 ± 0.49%	96.23 ± 0.59%	96.27 ± 0.65%	93.66 ± 0.59%	94.31 ± 0.51%	97.06 ± 0.3%	97.51 ± 0.22%	44.4 ± 0.7%	90.5 ± 1.16%	63 to 67 °C			
COC(=O)[C@]1(C)CCC[C@@]2(C)C3CC[C@]4(O)C[C@@]3(CCC21)[C@@H](O)[C@]4(O)CN[C@@H](C)c1ccccc1 (stereo partly drawn) [Compound 8, (4R,6aR,7R,8R,9S,11bS)-Methyl 7,8,9-Trihydroxy-4,11b-dimethyl-8-((((S)-1-phenylethyl)amino)methyl)tetradecahydro-6a,9-methanocyclohepta[a]naphthalene-4-carboxylate]		131 ± 2.2 µM (≈ 63.8 µg/mL)	0.58 ± 0.01 ×10⁻⁶ cm/s	42.6 ± 3.9%	< 20%	96.19 ± 0.25%	< 20%	95.09 ± 0.69%	74 ± 2.14%	96.04 ± 0.32%	84.3 ± 2.78%	95.62 ± 0.92%	59.9 ± 3.03%	97.45 ± 0.36%	58.8 ± 1.41%	103.2 ± 0.33%	157 to 161 °C	slightly weaker action	noteworthy selectivity	slightly weaker action
